Laboratory results published in patent publication US20230405081A1, “PHARMACEUTICAL COMPOSITION COMPRISING A PEPTIDE AS ACTIVE INGREDIENT” (INTRACT PHARMA LIMITED, priority 2020, published 2023).

Assay: in vitro
Conditions: human, real gastrointestinal fluid or homogenate; for remaining at 1 h, 1 mg/ml: pH 7, % Peptide remaining at 1 hours (T = 1 h)
Description: A human colonic model based on a mixed faecal inoculum was used to mimic the luminal environment of the human large intestine. An anaerobic workstation (Electrotek 500TG™ workstation, Electrotek, West Yorkshire, UK) maintained at 37° C. and 70% relative air humidity was used to set up the model. The fecal material was transferred in the anaerobic workstation and diluted with freshly prepared basal medium to obtain 20% w/w slurry by homogenization. The basal media provides nutrients and growth factors to the microbiota allowing viability for up to 24 hours. The homogenized bacterial media was sieved through an open mesh fabric (SefarNitex™, pore size 350 μm) to remove any nonhomogeneous fibrous material. The pH was maintained at approximately 7 to mimic the colonic luminal pH of the human.
Desmopressin stock solution was prepared in HPLC water at 2 mg/ml without or with single L-amino acids, combinations of L-amino acids or di-peptides at 10 and/or 20 and/or 40 mM concentrations and added to […] human faecal slurry; […] Samples were withdrawn at appropriate time points and added to HPLC grade methanol in a ratio of 1:1. The samples were centrifuged at […] for 10 minutes at 4° C. and the supernatant was analysed by Reversed Phase-HPLC (RP-HPLC).
Sample analysis was performed using a high performance liquid chromatography (HPLC) system (Agilent Technologies, 1260 Infinity II Series™) equipped with a pump (model G7111A), autosampler (model G7129A) and a diode-array UV detector (model G7114A). A 150×4.6-mm, 5 μm, 100 Å (Phenomenex, UK) reversed phase chromatography column was used for sample separation using 0.1% TFA in water (A) and acetonitrile (B) as the mobile phase for elution, at a flow rate of 1 ml/min. The gradient was set up with 17% of B at 0-4 minutes, 30% of B at 20 minutes and 17% of B at 20.01-23 minutes. The analysis was operated at room temperature and UV detection wavelength was set at 220 nm. Each sample was run for 23 minutes to allow complete elution of the sample without overlapping matrix interferences.
Colon stability was assessed using the Human Colon model with the amount of intact desmopressin remaining at each time point assessed by RP-HPLC as described in the Methods section.
Colon stability was assessed using the Human Colon model with the amount of intact oxytocin, oxytocin with 1 D-amino acid and linear oxytocin remaining at each time point assessed by RP-HPLC as described in the Methods section.

SMILES | remaining at 0.5 h, 1 mg/ml (pH 7, % Peptide remaining at 0.5 hours (T = 0.5 h)) [%] | remaining at 1 h, 1 mg/ml [%] | % Desmopressin remaining after 1 hours (T = 1 h) (1 h, 0.1 mg/ml, pH 7) [%] | remaining at 1 h, 0.1 mg/ml (pH 7, % Desmopressin remaining after 1 hours (T = 1 h)) [%]
CC[C@H](C)[C@H](NC(=O)[C@H](Cc1ccc(O)cc1)NC(=O)[C@@H](N)CS)C(=O)N[C@@H](CCC(N)=O)C(=O)N[C@@H](CC(N)=O)C(=O)N[C@@H](CS)C(=O)N1CCC[C@H]1C(=O)N[C@H](CC(C)C)C(=O)NCC(N)=O [Linear Oxytocin with 1 D-amino acid] | 0 | 0 | – | –
NC(=O)CC[C@@H]1NC(=O)[C@H](Cc2ccccc2)NC(=O)[C@H](Cc2ccc(O)cc2)NC(=O)CCSSC[C@@H](C(=O)N2CCC[C@H]2C(=O)N[C@H](CCCN=C(N)N)C(=O)NCC(N)=O)NC(=O)[C@H](CC(N)=O)NC1=O [Desmopressin] | – | – | 22.6 ± 2.7 | 28.8 ± 1.2
CC[C@H](C)[C@@H]1NC(=O)[C@H](Cc2ccc(O)cc2)NC(=O)[C@@H](N)CSSC[C@@H](C(=O)N2CCC[C@H]2C(=O)N[C@@H](CC(C)C)C(=O)NCC(N)=O)NC(=O)[C@H](CC(N)=O)NC(=O)[C@H](CCC(N)=O)NC1=O [Oxytocin] | – | 6.6 ± 0.25 | – | –
